# Columns and labels:
# [1] = tested on: tight junction proteins (CLDN4, CLDN18) bound to ZO-1 in AEC-I monolayers; assay: Co-immunoprecipitation of tight junction proteins with ZO-1 as bait; assay type: cell-based, rat; conditions: stretched monolayers (25%, 6 hours), PI pretreatment
# Protocol: The dose of siRNA and PI treatment was selected based on dose-response curves above (FIG. 2A-FIG. 2E). AEC-II transformed to AEC-I cells and formed a complete monolayer by day 4, expressing only AEC-I cell surface markers. On the day of the experiment, the medium was removed and replaced with HEPES-buffered MEM. Cells stretch was performed in a 37° C. incubator. The effect of ISR inhibition or control treatment was compared in the following three conditions (N=5 biological replicates/condition): 1) no stretch (NS) controls; 2) mechanical stretch with 12% surface change (S 12%); and 3) mechanical stretch with 25% surface change (S25%). The cell monolayers were exposed to the above mentioned conditions for 6 hours based on time course of ISR protein expression obtained during preliminary data collection (FIG. 2A-FIG. 2E). All membranes were treated with FITC-labeled streptavidin (Thermo Fisher Scientific) at the end of the experiment and light emission was detected at 488 nm with fluorescent microscopy (Nikon TE300, Melville, N.Y.). In a separate set of experiments (N=30 rats), in which the above mentioned treatment plan and conditions were used, cells were harvested at the end of the experiment by scraping them in RIPA buffer and total protein was extracted (N=3 membranes/treatment group performed for N=5 biological replicates per condition). […]
# [2] = tested on: AEC-I monolayers; assay: Cytokine levels in culture supernatant, multiplex bead assay; assay type: cell-based, rat; conditions: stretched monolayers, PI treatment
# Protocol: Given the interest in cytokines as a biomarker of injury, the contribution of ISR signaling to stretch-induced proinflammatory mediator release was assessed by measuring the level of 26 common cytokines in the culture media in the presence and absence of PI. Generally low cytokine response to stretch was found with modest elevations in IL-18, IL-1α and MIP-1α (FIG. 4A-FIG. 4C). […] (FIG. 4A). To study the regulation of IL-18 by ISR, stretched and unstretched cells were treated with CHOP, ATF4 and PERK siRNA (FIG. 17A-FIG. 17B and FIG. 4D-FIG. 4F). […] Cell culture media IL-18 levels were compared to no siRNA and non-targeting siRNA treatments.
# Culture media of stretched and unstretched AEC-I monolayers was collected at the end of the experiment. N=5 biological monolayer replicates were used per condition. 0.5 ml samples were concentrated to 30 μl using centrifugal filters (Amicon Ultra, EMD Millipore). Levels of 26 common cytokines and chemokines were measured with RECYTMAG-65K MILLIPLEX MAP Rat Cytokine Chemokine Magnetic Bead Panel multiplex bead assay (EMD Millipore Corp., Billerica, Mass.) in triplicates per the manufacturer's protocol. 25 μl samples were used. The following analytes were measured: epidermal growth factor (EGF), eotaxin, macrophage colony stimulating factor […], interleukin (IL)-1α, 2,4,5,6,10,12 (p70), 13, 17A, 18; granulocyte-macrophage colony stimulating factor (GM-CSF), regulated on activation, normal T cell expressed and secreted (RANTES), vascular […] growth factor (VEGF), fractalkine, interferon-γ (INFγ), interferon-γ-inducible protein 10 (IP-10), leptin, tumor necrosis factor-α (TNF-α), keratinocyte chemoattractant (GRO/KC), macrophage inflammatory protein (MIP)-1α and 2, monocyte chemoattractant protein (MCP-1), and LPS-induced chemokine (LIX). Samples were read in triplicates and an averaged value was obtained.
smiles,measurement,setting,value
"Cn1cc(-c2ccc3c(c2)CCN3C(=O)Cc2cccc(C(F)(F)F)c2)c2c(N)ncnc21 [PI, 1-[5-(4-Amino-7-methyl-7H-pyrrolo[2,3-d]pyrimidin-5-yl)indolin-1-yl]-2-(3-trifluoromethylphenyl)ethanone]",dissociation of CLDN 4 from ZO-1,[1],prevented
same,dissociation of CLDN 18 from ZO-1,[1],prevented
same,IL-1α level in supernatant,[2],did not affect
same,IL-18 level in supernatant,[2],decreased
same,MIP-1α level in supernatant,[2],did not affect

# Reference: patent US11026945B2, “Protein kinase RNA-like endoplasmic reticulum kinase (PERK) inhibitors for prevention and/or treatment of lung injury and/or inflammation” (THE TRUSTEES OF THE UNIVERSITY OF PENNSYLVANIA, priority 2016, dated 2021)
